Where two headings read alike, the source gives them in different places. Blank lines part the entries; values can stand above or below the compound they belong to.
Experiments:
[1] = target: T1, baculovirus-expressed ALK (Homo sapiens, UniProt Q9UM73); assay: ALK Kinase Assay (ELISA-type, time-resolved fluorescence); type: biochemical
T1 construct: host or cells: baculovirus expression system
In short: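 Wells were coated with phospholipase C-γ at 10 μg/mL in Tris-buffered saline. Adding 30 ng/ml enzyme started the reaction, which ran at 37° C for 15 minutes before Eu-N1 PT66 antibody detection. Percent inhibition versus log10 concentration gave IC50 by variable-slope fit.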

[2] = target: T2, c-Met (cytoplasmic domain) (Homo sapiens, UniProt P08581); assay: c-Met Kinase Assay (same methods as for ALK, with modifications); type: biochemical
T2 construct: 10 ng/mL c-Met (cytoplasmic domain, Invitrogen Corporation #PV3143); purchased Invitrogen Corporation PV3143
T2 sequence (P08581 956-1390 limits assumed): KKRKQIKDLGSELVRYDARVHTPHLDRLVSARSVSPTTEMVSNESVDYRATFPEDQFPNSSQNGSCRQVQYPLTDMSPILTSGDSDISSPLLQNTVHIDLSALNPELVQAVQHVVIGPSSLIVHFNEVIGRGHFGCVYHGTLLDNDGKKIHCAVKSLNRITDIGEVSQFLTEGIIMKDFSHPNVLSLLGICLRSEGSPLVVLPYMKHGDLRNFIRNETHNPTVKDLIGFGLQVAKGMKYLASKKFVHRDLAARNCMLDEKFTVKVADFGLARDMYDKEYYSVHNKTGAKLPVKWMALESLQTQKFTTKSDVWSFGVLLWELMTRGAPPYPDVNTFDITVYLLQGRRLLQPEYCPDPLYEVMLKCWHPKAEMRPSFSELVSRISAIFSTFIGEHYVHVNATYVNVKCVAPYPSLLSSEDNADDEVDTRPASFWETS
In short: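 IC50 values were fitted by variable-slope sigmoidal regression of percent inhibition against log compound concentration. Phosphorylation was read with Eu-N1 PT66 antibody after a 15 min, 37 °C reaction. The reaction was initiated with 10 ng/mL c-Met cytoplasmic domain on wells coated with 10 μg/mL PLC-γ in TBS.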

[3] = ALK kinase inhibition, 1 μM ATP, read-out: ALK Activity
[4] = c-Met kinase inhibition, 1 μM ATP, read-out: cMet Activity
[5] = ALK kinase inhibition, 1 μM ATP (Km level), read-out: ALK Activity
[6] = c-Met kinase inhibition, 1 μM ATP (Km level), read-out: cMet Activity
[7] = 1 μM ATP (Km level), read-out: ALK Activity (ALK Kinase Inhibition, IC50)
[8] = 1 μM ATP (Km level), read-out: cMet Activity (c-Met Kinase Inhibition, IC50)
[9] = 1 μM ATP (Km level), 30 ng/ml ALK, 37° C., 15 minutes, read-out: ALK Activity (ALK kinase inhibition, IC50 class)
[10] = 1 μM ATP (Km level), 10 ng/mL c-Met, read-out: cMet Activity (c-Met kinase inhibition, IC50 class)

T1 sequence (Q9UM73 19-1620): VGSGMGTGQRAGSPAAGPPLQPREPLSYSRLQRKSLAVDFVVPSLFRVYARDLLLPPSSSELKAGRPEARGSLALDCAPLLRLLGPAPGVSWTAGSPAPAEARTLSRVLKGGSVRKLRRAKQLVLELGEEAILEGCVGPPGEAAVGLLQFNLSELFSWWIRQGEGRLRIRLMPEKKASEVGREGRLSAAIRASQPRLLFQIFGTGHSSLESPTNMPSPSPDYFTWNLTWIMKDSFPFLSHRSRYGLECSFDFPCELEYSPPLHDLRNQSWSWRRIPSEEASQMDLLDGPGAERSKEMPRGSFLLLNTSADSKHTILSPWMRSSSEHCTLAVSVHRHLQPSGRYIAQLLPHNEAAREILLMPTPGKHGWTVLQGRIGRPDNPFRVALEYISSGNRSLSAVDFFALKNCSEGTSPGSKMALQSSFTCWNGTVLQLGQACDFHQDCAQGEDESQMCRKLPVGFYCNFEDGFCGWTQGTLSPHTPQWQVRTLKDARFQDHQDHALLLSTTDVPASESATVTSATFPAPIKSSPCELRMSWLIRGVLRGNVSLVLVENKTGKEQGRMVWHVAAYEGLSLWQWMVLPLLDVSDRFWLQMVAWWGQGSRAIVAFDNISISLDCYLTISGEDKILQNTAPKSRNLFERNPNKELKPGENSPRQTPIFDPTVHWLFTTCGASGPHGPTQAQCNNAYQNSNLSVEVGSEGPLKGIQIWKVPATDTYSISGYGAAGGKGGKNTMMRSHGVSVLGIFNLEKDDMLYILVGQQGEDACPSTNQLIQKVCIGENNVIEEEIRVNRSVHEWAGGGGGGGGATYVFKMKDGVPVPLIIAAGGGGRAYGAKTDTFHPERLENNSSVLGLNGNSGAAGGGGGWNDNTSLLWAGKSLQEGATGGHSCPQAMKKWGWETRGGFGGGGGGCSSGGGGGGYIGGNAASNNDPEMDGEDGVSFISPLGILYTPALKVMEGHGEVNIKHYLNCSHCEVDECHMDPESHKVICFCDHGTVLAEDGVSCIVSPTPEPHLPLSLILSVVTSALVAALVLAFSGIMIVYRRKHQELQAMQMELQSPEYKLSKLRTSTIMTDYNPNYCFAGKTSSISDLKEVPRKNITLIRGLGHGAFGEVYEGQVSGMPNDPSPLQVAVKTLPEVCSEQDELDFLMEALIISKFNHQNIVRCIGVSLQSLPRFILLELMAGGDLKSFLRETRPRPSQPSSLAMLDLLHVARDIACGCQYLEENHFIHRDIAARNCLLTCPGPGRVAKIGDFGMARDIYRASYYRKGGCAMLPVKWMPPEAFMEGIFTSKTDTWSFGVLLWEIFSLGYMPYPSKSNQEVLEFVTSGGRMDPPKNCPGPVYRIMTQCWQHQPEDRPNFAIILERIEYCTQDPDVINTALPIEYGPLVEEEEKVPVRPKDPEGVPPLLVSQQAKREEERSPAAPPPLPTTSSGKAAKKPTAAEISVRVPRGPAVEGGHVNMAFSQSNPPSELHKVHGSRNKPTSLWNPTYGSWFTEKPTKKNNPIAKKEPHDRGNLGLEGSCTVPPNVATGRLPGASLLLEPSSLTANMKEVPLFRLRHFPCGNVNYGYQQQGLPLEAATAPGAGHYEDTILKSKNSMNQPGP

SMILES: COc1cc2c(cc1Nc1ncc(Cl)c(Nc3ccccc3S(=O)(=O)N3CCC(O)C3)n1)CCN(CC(C)O)CC2 (stereo not drawn) [Example 1552, 1-(2-{5-Chloro-2-[3-(2-hydroxy-propyl)-8-methoxy-2,3,4,5-tetrahydro-1H-3-benzazepin-7-ylamino]-pyrimidin-4-ylamino}-benzenesulfonyl)-pyrrolidin-3-ol]
IC50 [1, 3]: < 0.1 µM
IC50 [2, 4]: 1 to 10 µM

SMILES: CCN1CCc2ccc(Nc3ncc(Cl)c(Nc4ccccc4NS(C)(=O)=O)n3)c(OC)c2CC1 [Example 233, N-{2-[5-Chloro-2-(3-ethyl-6-methoxy-2,3,4,5-tetrahydro-1H-benzo[d]azepin-7-ylamino)-pyrimidin-4-ylamino]-phenyl}-methanesulfonamide]
IC50 [1, 5]: < 0.1 µM
IC50 [2, 6]: > 10 µM

SMILES: COc1c(Nc2ncc(Cl)c(N[C@H]3[C@@H](C(N)=O)[C@@H]4C=C[C@H]3C4)n2)ccc2c1C(=O)C[C@@H](NC(C)=O)CC2 [Example 632, (1S,2S,3R,4R)-3-[2-((S)-7-Acetylamino-1-methoxy-9-oxo-6,7,8,9-tetrahydro-5H-benzocyclohepten-2-ylamino)-5-chloro-pyrimidin-4-ylamino]-bicyclo[2.2.1]hept-5-ene-2-carboxylic acid amide]
IC50 [1, 7]: 0.1 to 1 µM
IC50 [2, 8]: > 10 µM

SMILES: CCNC(=O)c1ccccc1Nc1nc(Nc2cc3c(cc2OC)CCN(CC(=O)N(C)C)CC3)ncc1Cl [Example 262, 2-[5-Chloro-2-(3-dimethylcarbamoylmethyl-8-methoxy-2,3,4,5-tetrahydro-1H-benzo[d]azepin-7-ylamino)-pyrimidin-4-ylamino]-N-ethyl-benzamide]
IC50 [1, 5]: < 0.1 µM
IC50 [2, 6]: 1 to 10 µM

SMILES: COCC(COC)N1CCc2cc(Nc3ncc(Cl)c(N[C@@H]4CCCC[C@H]4NS(C)(=O)=O)n3)c(OC)cc2CC1 [Example 816, N-((1R,2R)-2-{5-Chloro-2-[8-methoxy-3-(2-methoxy-1-methoxymethyl-ethyl)-2,3,4,5-tetrahydro-1H-benzo[d]azepin-7-ylamino]-pyrimidin-4-ylamino}-cyclohexyl)-methanesulfonamide]
IC50 [1, 7]: < 0.1 µM
IC50 [2, 8]: > 10 µM

SMILES: CNC(=O)c1ccccc1Nc1nc(Nc2ccc3c(c2)CCN(C(=O)N(C)C)CC3)ncc1Cl [Example 327, 7-[5-Chloro-4-(2-methylcarbamoyl-phenylamino)-pyrimidin-2-ylamino]-1,2,4,5-tetrahydro-benzo[d]azepine-3-carboxylic acid dimethylamide]
IC50 [1, 5]: < 0.1 µM
IC50 [2, 6]: < 0.1 µM

SMILES: NC(=O)C1C2C=CC(C2)C1Nc1nc(Nc2cccc3c2OCCCC3)ncc1Cl (stereo not drawn) [Example 861, (2-exo-3-exo)-3-[5-Chloro-2-(2,3,4,5-tetrahydro-benzo[b]oxepin-9-ylamino)-pyrimidin-4-ylamino]-bicyclo[2.2.1]hept-5-ene-2-carboxylic acid amide]
IC50 [1, 7]: < 0.1 µM
IC50 [2, 8]: > 10 µM

SMILES: COc1cc2c(cc1Nc1ncc(Cl)c(N[C@H]3[C@@H](C(N)=O)[C@@H]4C=C[C@H]3C4)n1)C(C)(C)CCC(=O)N2 [Example 1312]
IC50 [1, 9]: < 0.1 µM
IC50 [2, 10]: > 10 µM

SMILES: CN(CCC#N)c1cccc(F)c1Nc1nc(Nc2ccc3c(c2)C(C)(C)CCC(=O)N3)ncc1Cl [Example 1266, 3-({2-[5-Chloro-2-(5,5-dimethyl-2-oxo-2,3,4,5-tetrahydro-1H-1-benzazepin-7-ylamino)-pyrimidin-4-ylamino]-3-fluoro-phenyl}-methyl-amino)-propionitrile]
IC50 [1, 9]: < 0.1 µM
IC50 [2, 10]: 1 to 10 µM

SMILES: CC1(C)CCCOc2c(Nc3ncc(Cl)c(N[C@@H]4[C@H](C(N)=O)[C@H]5C=C[C@@H]4C5)n3)cccc21 [Example 870, (1R,2R,3S,4S)-3-[5-Chloro-2-(5,5-dimethyl-2,3,4,5-tetrahydro-benzo[b]oxepin-9-ylamino)-pyrimidin-4-ylamino]-bicyclo[2.2.1]hept-5-ene-2-carboxylic acid amide]
IC50 [1, 7]: 0.1 to 1 µM
IC50 [2, 8]: > 10 µM

SMILES: COCCN(C)C1CCc2ccc(Nc3ncc(Cl)c(N[C@H]4[C@@H](C(N)=O)[C@@H]5C=C[C@H]4C5)n3)c(OC)c2CC1 (single isomer, unassigned) [Example 700]
IC50 [1, 7]: < 0.1 µM
IC50 [2, 8]: > 10 µM

SMILES: CCN1CCc2cc(Nc3ncc(Cl)c(Nc4ccccc4C(=O)NC)n3)c(OC)cc2CC1 [Example 48, 2-[5-Chloro-2-(3-ethyl-8-methoxy-2,3,4,5-tetrahydro-1H-benzo[d]azepin-7-ylamino)-pyrimidin-4-ylamino]-N-methyl-benzamide]
IC50 [1, 5]: < 0.1 µM
IC50 [2, 6]: 1 to 10 µM

Other lines, results leading:

IC50 [1, 3]: 1 to 10 µM
IC50 [2, 4]: < 0.1 µM
SMILES: O=C1Cc2ccc(Nc3ncc(Cl)c(Nc4ccccc4-n4cccn4)n3)cc2CCN1 [Example 1813, 7-[5-Chloro-4-(2-pyrazol-1-yl-phenylamino)-pyrimidin-2-ylamino]-1,3,4,5-tetrahydro-benzo[d]azepin-2-one]

IC50 [1, 7]: < 0.1 µM
IC50 [2, 8]: 1 to 10 µM
SMILES: CNC(=O)c1cc(OC)ccc1Nc1nc(Nc2cc3c(cc2OC)CCN(CC(=O)N(C)C)CC3)ncc1Cl [Example 617, 2-[5-Chloro-2-(3-dimethylcarbamoylmethyl-8-methoxy-2,3,4,5-tetrahydro-1H-benzo[d]azepin-7-ylamino)-pyrimidin-4-ylamino]-5-methoxy-N-methyl-benzamide]

IC50 [1, 9]: < 0.1 µM
IC50 [2, 10]: < 0.1 µM
SMILES: C#CCNC(=O)c1cccc(F)c1Nc1nc(Nc2ccc3c(c2)NC(=O)C(N)CC3(C)C)ncc1Cl (stereo not drawn) [Example 1280, 2-[2-(3-Amino-5,5-dimethyl-2-oxo-2,3,4,5-tetrahydro-1H-1-benzazepin-8-ylamino)-5-chloro-pyrimidin-4-ylamino]-3-fluoro-N-prop-2-ynyl-benzamide]

IC50 [1, 9]: 0.1 to 1 µM
IC50 [2, 10]: 0.1 to 1 µM
SMILES: COCCN1CCc2ccc(Nc3ncc(Cl)c(Nc4c(F)cccc4OC4CCOC4)n3)cc2CC1 (stereo not drawn) [Example 1274, 5-Chloro-N(4)-[2-fluoro-6-(tetrahydro-furan-3-yloxy)-phenyl]-N(2)-[3-(2-methoxy-ethyl)-2,3,4,5-tetrahydro-1H-3-benzazepin-7-yl]-pyrimidine-2,4-diamine]

IC50 [1, 5]: < 0.1 µM
IC50 [2, 6]: > 10 µM
SMILES: COc1cc2c(cc1Nc1ncc(Cl)c(Nc3ccc(N4CCOCC4)cc3OC)n1)N(C)CCN(C[C@@H](O)C(F)(F)F)C2 [Example 496, (R)-3-{8-[5-Chloro-4-(2-methoxy-4-morpholin-4-yl-phenylamino)-pyrimidin-2-ylamino]-7-methoxy-1-methyl-1,2,3,5-tetrahydro-benzo[e][1,4]diazepin-4-yl}-1,1,1-trifluoro-propan-2-ol]

IC50 [1, 5]: < 0.1 µM
IC50 [2, 6]: > 10 µM
SMILES: COc1cc2c(cc1Nc1ncc(Cl)c(Nc3ccc(N4CCOCC4)cc3OC)n1)N(C)CCN(S(C)(=O)=O)C2 [Example 494, 5-Chloro-N*2*-(4-methanesulfonyl-7-methoxy-1-methyl-2,3,4,5-tetrahydro-1H-benzo[e][1,4]diazepin-8-yl)-N*4*-(2-methoxy-4-morpholin-4-yl-phenyl)-pyrimidine-2,4-diamine]

IC50 [1, 9]: 1 to 10 µM
IC50 [2, 10]: < 0.1 µM
SMILES: C#CCNC(=O)c1cccc(F)c1Nc1nc(Nc2ccc3c(c2)NC(=O)C(NC(C)=O)CC3(C)C)ncc1Cl (stereo not drawn) [Example 1290, 2-[2-(3-Acetylamino-5,5-dimethyl-2-oxo-2,3,4,5-tetrahydro-1H-1-benzazepin-8-ylamino)-5-chloro-pyrimidin-4-ylamino]-3-fluoro-N-prop-2-ynyl-benzamide]

IC50 [1, 9]: < 0.1 µM
IC50 [2, 10]: > 10 µM
SMILES: COc1cc2c(cc1Nc1ncc(Cl)c(Nc3cc(C#N)ccc3OC)n1)CCN(CC(N)=O)CC2 [Example 1154, 2-{7-[5-Chloro-4-(5-cyano-2-methoxy-phenylamino)-pyrimidin-2-ylamino]-8-methoxy-1,2,4,5-tetrahydro-benzo[d]azepin-3-yl}-acetamide]

IC50 [1, 5]: < 0.1 µM
IC50 [2, 6]: > 10 µM
SMILES: CCN1C(=O)CCCc2cc(Nc3ncc(Cl)c(N[C@@H]4[C@H]5CC[C@H](C5)[C@@H]4C(N)=O)n3)c(OC)cc21 (relative stereo) [Example 136, (2-exo,3-exo)-3-[5-Chloro-2-(1-ethyl-8-methoxy-2-oxo-2,3,4,5-tetrahydro-1H-benzo[b]azepin-7-ylamino)-pyrimidin-4-ylamino]-bicyclo[2.2.1]heptane-2-carboxylic acid amide]

IC50 [1, 9]: 0.1 to 1 µM
IC50 [2, 10]: 0.1 to 1 µM
SMILES: CNC(=O)c1cccc(F)c1Nc1nc(Nc2ccc3c(c2)C(=O)NCCO3)ncc1Cl [Example 1222, 2-[5-Chloro-2-(5-oxo-2,3,4,5-tetrahydro-1,4-benzoxazepin-7-ylamino)-pyrimidin-4-ylamino]-3-fluoro-N-methyl-benzamide]

IC50 [1, 7]: < 0.1 µM
IC50 [2, 8]: > 10 µM
SMILES: CCN1CC(=O)N(C)c2cc(Nc3ncc(Cl)c(Nc4ccc(OC)cc4-n4cccn4)n3)c(OC)cc2C1 [Example 742, 8-[5-Chloro-4-(4-methoxy-2-pyrazol-1-yl-phenylamino)-pyrimidin-2-ylamino]-4-ethyl-7-methoxy-1-methyl-1,3,4,5-tetrahydro-benzo[e][1,4]diazepin-2-one]

IC50 [1, 9]: < 0.1 µM
IC50 [2, 10]: 0.1 to 1 µM
SMILES: Clc1cnc(Nc2ccc3c(c2)CCC(N2CCOCC2)CC3)nc1Nc1ccccc1-n1cccn1 (stereo not drawn) [Example 1034, 5-Chloro-N*2*-(7-morpholin-4-yl-6,7,8,9-tetrahydro-5H-benzocyclohepten-2-yl)-N*4*-(2-pyrazol-1-yl-phenyl)-pyrimidine-2,4-diamine]

From patent US8148391B2 (Cephalon, Inc., priority 2006, dated 2012)
